Test results published in DBAASP.
≈ marks a conversion by molar mass, not a printed value.

Key:
Experiment in all cases: ≥ marks a high value that may be exact or a test limit, other limits are often not marked, values filed in µg/mL are converted to µM
Bacillus subtilis 168 = tested on: Bacillus subtilis 168
Escherichia coli B = tested on: Escherichia coli B
Pseudomonas aeruginosa = tested on: Pseudomonas aeruginosa
Staphylococcus aureus = tested on: Staphylococcus aureus
[1] = tested on: Bacillus subtilis KCTC 3068
[2] = tested on: Escherichia coli KCTC 1682
[3] = tested on: Pseudomonas aeruginosa KCTC 1637
[4] = tested on: Salmonella typhimurium KCTC 1926
[5] = tested on: Staphylococcus aureus KCTC 1621
[6] = tested on: Staphylococcus epidermidis KCTC 1917

Row | Structure (SMILES) | MIC (Bacillus subtilis 168) [µM] | MIC (Escherichia coli B) [µM] | MIC (Pseudomonas aeruginosa) [µM] | MIC (Staphylococcus aureus) [µM] | MIC [1] [µM] | MIC [2] [µM] | MIC [3] [µM] | MIC [4] [µM] | MIC [5] [µM] | MIC [6] [µM]
1 | CC[C@H](C)[C@H](NC(=O)[C@H](CCCCN)NC(=O)[C@H](CCCCN)NC(=O)[C@H](Cc1c[nH]c2ccccc12)NC(=O)[C@H](CC(N)=O)NC(=O)[C@@H](N)C(C)C)C(=O)N[C@@H](CC(C)C)C(=O)N[C@@H](C)C(=O)N[C@@H](CCCCN)C(=O)N[C@H](C(=O)N[C@H](C(=O)N[C@@H](CCCCN)C(=O)N[C@H](C(=O)N[C@@H](C)C(=O)N[C@@H](CCCCN)C(N)=O)C(C)C)[C@@H](C)CC)[C@@H](C)CC [VNWKKILAKIIKVAK] | 0.7 (≈ 1.23 µg/mL) | 0.7 (≈ 1.23 µg/mL) | 22.5 (≈ 39.4 µg/mL) | 4.3 (≈ 7.53 µg/mL) | – | – | – | – | – | –
2 | CC[C@H](C)[C@H](NC(=O)[C@H](CO)NC(=O)[C@H](CC(C)C)NC(=O)[C@H](Cc1ccccc1)NC(=O)CN)C(=O)N[C@@H](CC(C)C)C(=O)N[C@@H](CCCCN)C(=O)N[C@@H](CCCCN)C(=O)N[C@H](C(=O)N[C@@H](CC(C)C)C(=O)NCC(=O)N[C@@H](CCCCN)C(=O)N[C@H](C(=O)N[C@@H](CCSC)C(=O)N[C@@H](C)C(=O)N[C@@H](Cc1cnc[nH]1)C(=O)N[C@@H](CCSC)C(=O)N[C@@H](CCCCN)C(N)=O)C(C)C)C(C)C [GFLSILKKVLGKVMAHMK] | 1.3 (≈ 2.6 µg/mL) | 1.8 (≈ 3.6 µg/mL) | 14.4 (≈ 28.8 µg/mL) | 4.3 (≈ 8.6 µg/mL) | – | – | – | – | – | –
3 | CC[C@H](C)[C@H](NC(=O)[C@H](CCCCN)NC(=O)[C@H](CO)NC(=O)[C@H](Cc1c[nH]c2ccccc12)NC(=O)[C@H](CCSC)NC(=O)CN)C(=O)N[C@@H](CC(C)C)C(=O)NCC(=O)N[C@@H](Cc1cnc[nH]1)C(=O)N[C@@H](CC(C)C)C(N)=O [GMWSKILGHL] | 22.5 (≈ 25.7 µg/mL) | ≥ 100 | > 100 | > 100 | – | – | – | – | – | –
4 | CC[C@H](C)[C@H](NC(=O)[C@H](CCCCN)NC(=O)[C@H](CC(C)C)NC(=O)[C@H](CC(C)C)NC(=O)[C@@H](N)CCCCN)C(=O)N[C@@H](Cc1c[nH]c2ccccc12)C(=O)N[C@@H](Cc1c[nH]c2ccccc12)C(=O)N[C@H](C(=O)N[C@@H](CCCCN)C(=O)N[C@H](C(=O)N[C@@H](CC(C)C)C(=O)N[C@@H](CCCCN)C(N)=O)C(C)C)[C@@H](C)CC [KLLKIWWIKVLK] | – | – | – | – | 7.97 (≈ 12.5 µg/mL) | 7.97 (≈ 12.5 µg/mL) | 3.99 (≈ 6.25 µg/mL) | 2 (≈ 3.13 µg/mL) | 7.97 (≈ 12.5 µg/mL) | 3.99 (≈ 6.25 µg/mL)
5 | CSCC[C@H](NC(=O)[C@H](Cc1cnc[nH]1)NC(=O)[C@H](C)NC(=O)[C@H](CCSC)NC(=O)[C@@H](NC(=O)[C@@H](N)CCCCN)C(C)C)C(=O)N[C@@H](CCCCN)C(N)=O [KVMAHMK] | ≥ 100 | ≥ 100 | – | – | – | – | – | – | – | –

Second part, the molecule after the results:

Row | MIC (Bacillus subtilis 168) [µM] | MIC (Escherichia coli B) [µM] | MIC (Pseudomonas aeruginosa) [µM] | MIC (Staphylococcus aureus) [µM] | MIC [1] [µM] | MIC [2] [µM] | MIC [3] [µM] | MIC [4] [µM] | MIC [5] [µM] | MIC [6] [µM] | Structure (SMILES)
6 | 0.6 (≈ 1.07 µg/mL) | 1.4 (≈ 2.49 µg/mL) | 27.1 (≈ 48.2 µg/mL) | 2.2 (≈ 3.91 µg/mL) | – | – | – | – | – | – | CC[C@H](C)[C@H](NC(=O)[C@H](CCCCN)NC(=O)[C@H](CCCCN)NC(=O)[C@H](Cc1c[nH]c2ccccc12)NC(=O)[C@H](CC(N)=O)NC(=O)[C@@H](N)C(C)C)C(=O)N[C@@H](CC(C)C)C(=O)N[C@@H](C)C(=O)N[C@@H](CCCCN)C(=O)N[C@H](C(=O)N[C@H](C(=O)N[C@@H](CCCCN)C(=O)N[C@H](C(=O)N[C@H](C(=O)N[C@@H](CCCCN)C(N)=O)C(C)C)C(C)C)[C@@H](C)CC)[C@@H](C)CC [VNWKKILAKIIKVVK]
7 | – | – | – | – | 0.5 (≈ 0.982 µg/mL) | 2 (≈ 3.93 µg/mL) | 4 (≈ 7.85 µg/mL) | 2 (≈ 3.93 µg/mL) | 1 (≈ 1.96 µg/mL) | 0.5 (≈ 0.982 µg/mL) | CC(C)C[C@H](NC(=O)[C@H](Cc1ccccc1)NC(=O)[C@H](CCCCN)NC(=O)[C@H](Cc1c[nH]c2ccccc12)NC(=O)[C@H](Cc1c[nH]c2ccccc12)NC(=O)[C@H](Cc1c[nH]c2ccccc12)NC(=O)[C@H](CCCCN)NC(=O)[C@H](Cc1ccccc1)NC(=O)[C@H](CCCN=C(N)N)NC(=O)[C@H](CCCN=C(N)N)NC(=O)[C@@H](N)C(C)C)C(=O)N[C@@H](CCCN=C(N)N)C(=O)N[C@@H](CCCN=C(N)N)C(N)=O [VRRFKWWWKFLRR]
